What was measured:
[1] = cited from earlier work
[2] = tested on: adult human dermal fibroblast (HDFa) cells; test: Cytotoxicity of retinol (Presto Blue / WST-1); format: cell-based; settings: 24 h exposure
Procedure: The cytotoxicity of retinol was determined.
Experiment 1: A solution of retinol (20 mg/mL) in ethanol (absolute) was prepared. The solution was diluted to 2 mg/mL, forming a light yellow emulsion. The emulsion was diluted in optiMem to provide concentrations of 5, 2.5, 1.25, 0.625 and 0.31 μg/mL retinol. Untreated and detergent controls were included for comparison. Using a Presto Blue assay, adult human dermal fibroblast (HDFa) cells (5 k per well) were exposed to the solutions for 24 h.
Experiment 2: A solution of retinol (20 mg/mL) in 1,2-propanediol was prepared. The solution was diluted to 2 mg/mL, forming an off-white emulsion. The emulsion was diluted in optiMem to provide concentrations of 10, 5, 2.5, 1.25, 0.625 and 0.31 μg/mL retinol. Untreated and detergent controls were included for comparison. Using a WST-1 probe, HDFa cells (5 k per well) were exposed to the solutions for 24 h.
Experiment 3: A solution of retinol (20 mg/mL) in ethanol (absolute) was prepared. The solution was diluted to 2 mg/mL, forming an light yellow emulsion. The emulsion was diluted in optiMem to provide concentrations of 10, 5, 2.5, 1.25, 0.625 and 0.31 μg/mL retinol. Untreated and detergent controls were included for comparison. Using a WST-1 probe, HDFa cells (5 k per well) were exposed to the solutions for 24 h.

Compound | log P [1] | concentration at which retinol is cytotoxic to the HDFa cell line ([2]; 5 k cells per well) [ng/mL] | cytotoxicity at concentration below 10 μg/mL ([2]; concentration below 10 μg/mL)
C=C(C)[C@@H]1CCC(C)=C[C@H]1c1c(O)cc(CCCCC)cc1O [CBD, cannabidiol] | ~6.3 |  | 
CC1=C(/C=C/C(C)=C/C=C/C(C)=C/CO)C(C)(C)CCC1 [retinol, Retinol] |  | ≥ 10000 | only little, if any, cytotoxicity

Reference: patent US20250367084A1, “Micellar Composition” (Phytoceutical Limited, priority 2022, published 2025)
